# Experimental data from patent US11084800B2 (Achillion Pharmaceuticals, Inc., priority 2017, dated 2021).
# Biological target: Human Factor D (Homo sapiens (Human), UniProt P00746)
# Assay: Human Factor D Assay
# Type: biochemical
# Conditions: Table 6; Factor D 80 nM, substrate Z-L-Lys-SBz; read-out: IC50
# How it was run: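 Serum-purified Factor D (80 nM final) preincubated 5 min at room temperature with compound in 50 mM Tris, 1 M NaCl, pH 7.5. Z-L-Lys-SBz and DTNB added at 100 μM each; A405 followed every 30 s for 30 min. IC50 from nonlinear regression of rates versus concentration.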
# Chain of Human Factor D (P00746 26-253): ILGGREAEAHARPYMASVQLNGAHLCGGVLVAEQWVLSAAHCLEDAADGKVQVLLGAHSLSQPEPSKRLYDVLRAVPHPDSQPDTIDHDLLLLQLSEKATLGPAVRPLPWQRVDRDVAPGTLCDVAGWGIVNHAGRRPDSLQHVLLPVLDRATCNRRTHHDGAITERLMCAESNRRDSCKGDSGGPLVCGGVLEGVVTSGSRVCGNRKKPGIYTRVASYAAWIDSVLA
row,IC50,Compound
1,< 1000 nM,"CC(=O)c1nn(CC(=O)N2[C@H](C(=O)Nc3nc(Br)c(F)cc3C)C[C@@]3(C)C[C@@H]23)c2ncc(-c3cnc(C)nc3)cc12 [Compound 182, (1R,3S,5R)-2-(2-(3-Acetyl-5-(2-methylpyrimidin-5-yl)-1H-pyrazolo[3,4-b]pyridin-1-yl)acetyl)-N-(6-bromo-5-fluoro-3-methylpyridin-2-yl)-5-methyl-2-azabicyclo[3.1.0]hexane-3-carboxamide]"
2,< 1000 nM,"CC(=O)c1nn(CC(=O)N2C[C@H]3C[C@H]3[C@H]2C(=O)Nc2nc(Br)ccc2C)c2ncc(-c3cnc(C)nc3)cc12 [Compound 183, (1R,2S,5S)-3-(2-(3-Acetyl-5-(2-methylpyrimidin-5-yl)-1H-pyrazolo[3,4-b]pyridin-1-yl)acetyl)-N-(6-bromo-3-methylpyridin-2-yl)-3-azabicyclo[3.1.0]hexane-2-carboxamide]"
3,1000 to 10000 nM,"CC(=O)c1nn(CC(=O)N2[C@H](C(=O)Nc3nc(Br)ccc3C)C[C@@]3(C)C[C@@H]23)c2ccc(-c3cnc(C)nc3)nc12 [Compound 184, (1R,3S,5R)-2-(2-(3-Acetyl-5-(2-methylpyrimidin-5-yl)-1H-pyrazolo[4,3-b]pyridin-1-yl)acetyl)-N-(6-bromo-3-methylpyridin-2-yl)-5-methyl-2-azabicyclo[3.1.0]hexane-3-carboxamide]"
4,1000 to 10000 nM,"CC(=O)c1nn(CC(=O)N2[C@H](C(=O)Nc3nc(Br)c(F)cc3C)C[C@@]3(C)C[C@@H]23)c2ccc(-c3cnc(C)nc3)nc12 [Compound 185, (1R,3S,5R)-2-(2-(3-Acetyl-5-(2-methylpyrimidin-5-yl)-1H-pyrazolo[4,3-b]pyridin-1-yl)acetyl)-N-(6-bromo-5-fluoro-3-methylpyridin-2-yl)-5-methyl-2-azabicyclo[3.1.0]hexane-3-carboxamide]"
5,< 1000 nM,"CC(=O)c1nn(CC(=O)N2[C@H](C(=O)Nc3nc(Br)ccc3CN3CCOCC3)C[C@@]3(C)C[C@@H]23)c2cnc(-c3cnc(C)nc3)cc12 [Compound 192, (1R,3S,5R)-2-(2-(3-Acetyl-5-(2-methylpyrimidin-5-yl)-1H-pyrazolo[3,4-c]pyridin-1-yl)acetyl)-N-(6-bromo-3-(morpholinomethyl)pyridin-2-yl)-5-methyl-2-azabicyclo[3.1.0]hexane-3-carboxamide]"
6,< 1000 nM,"COc1ncc(-c2cc3c(C(C)=O)nn(CC(=O)N4[C@H](C(=O)Nc5nc(Br)ccc5C)C[C@@]5(C)C[C@@H]45)c3cn2)cn1 [Compound 193, (1R,3S,5R)-2-(2-(3-Acetyl-5-(2-methoxypyrimidin-5-yl)-1H-pyrazolo[3,4-c]pyridin-1-yl)acetyl)-N-(6-bromo-3-methylpyridin-2-yl)-5-methyl-2-azabicyclo[3.1.0]hexane-3-carboxamide]"
7,< 1000 nM,"CC(=O)c1nn(CC(=O)N2[C@H](C(=O)Nc3nc(Br)ccc3C)C[C@@]3(C)C[C@@H]23)c2cnc(-c3cnc(N)nc3)cc12 [Compound 194, (1R,3S,5R)-2-(2-(3-Acetyl-5-(2-aminopyrimidin-5-yl)-1H-pyrazolo[3,4-c]pyridin-1-yl)acetyl)-N-(6-bromo-3-methylpyridin-2-yl)-5-methyl-2-azabicyclo[3.1.0]hexane-3-carboxamide]"
8,< 1000 nM,"CC(=O)c1nn(CC(=O)N2[C@H](C(=O)Nc3nc(Br)c(F)cc3C)C[C@@]3(C)C[C@@H]23)c2cnc(-c3cnc(N)nc3)cc12 [Compound 195, (1R,3S,5R)-2-(2-(3-Acetyl-5-(2-aminopyrimidin-5-yl)-1H-pyrazolo[3,4-c]pyridin-1-yl)acetyl)-N-(6-bromo-5-fluoro-3-methylpyridin-2-yl)-5-methyl-2-azabicyclo[3.1.0]hexane-3-carboxamide]"
9,< 1000 nM,"CC(=O)c1nn(CC(=O)N2[C@H](C(=O)Nc3nc(Br)ccc3C)C[C@@]3(C)C[C@@H]23)c2cnc(-c3cnc(C)[n+]([O-])c3)cc12 [Compound 200, 5-(3-acetyl-1-(2-((1R,3S,5R)-3-((6-bromo-3-methylpyridin-2-yl)carbamoyl)-5-methyl-2-azabicyclo[3.1.0]hexan-2-yl)-2-oxoethyl)-1H-pyrazolo[3,4-c]pyridin-5-yl)-2-methylpyrimidine 1-oxide]"
10,< 1000 nM,"CC(=O)c1nn(CC(=O)N2[C@H](C(=O)Nc3nc(Br)ccc3C)C[C@@]3(C)C[C@@H]23)c2c(C)nc(-c3cnc(C)nc3)cc12 [Compound 205, (1R,3S,5R)-2-(2-(3-acetyl-7-methyl-5-(2-methylpyrimidin-5-yl)-1H-pyrazolo[3,4-c]pyridin-1-yl)acetyl)-N-(6-bromo-3-methylpyridin-2-yl)-5-methyl-2-azabicyclo[3.1.0]hexane-3-carboxamide]"
11,< 1000 nM,"CC(=O)c1nn(CC(=O)N2[C@H]3C[C@@]3(CN3C[C@H]4CCC[C@H]4C3)C[C@H]2C(=O)Nc2nc(Br)ccc2C)c2cnc(-c3cnc(C)nc3)cc12 [Compound 206, (1S,3S,5S)-2-(2-(3-acetyl-5-(2-methylpyrimidin-5-yl)-1H-pyrazolo[3,4-c]pyridin-1-yl)acetyl)-N-(6-bromo-3-methylpyridin-2-yl)-S-(((3aR,6a5)-hexahydrocyclopenta[c]pyrrol-2(1H)-yl)methyl)-2-azabicyclo[3.1.0]hexane-3-carboxamide]"
12,< 1000 nM,"CC(=O)c1nn(CC(=O)N2[C@H]3C[C@@]3(CN3CC4(CCCC4)C3)C[C@H]2C(=O)Nc2nc(Br)ccc2C)c2cnc(-c3cnc(C)nc3)cc12 [Compound 207, (1S,3S,5S)-5-((2-azaspiro[3.4]octan-2-yl)methyl)-2-(2-(3-acetyl-5-(2-methylpyrimidin-5-yl)-1H-pyrazolo[3,4-c]pyridin-1-yl)acetyl)-N-(6-bromo-3-methylpyridin-2-yl)-2-]"

# Second part, the compound before the results:
row,Compound,IC50
1,"CC(=O)c1nn(CC(=O)N2[C@H](C(=O)Nc3nc(Br)ccc3C)C[C@@]3(C)C[C@@H]23)c2ccc(-c3cnc4cc(C)nn4c3)cc12 [Compound 180, (1R,3S,5R)-2-(2-(3-Acetyl-5-(2-methylpyrazolo[1,5-a]pyrimidin-6-yl)-1H-indazol-1-yl)acetyl)-N-(6-bromo-3-methylpyridin-2-yl)-5-methyl-2-azabicyclo[3.1.0]hexane-3-carboxamide]",< 1000 nM
2,"CC(=O)c1nn(CC(=O)N2[C@H](C(=O)Nc3nc(Br)cc(C)c3C(F)F)C[C@@]3(C)C[C@@H]23)c2ccc(-c3cnc(C)nc3)cc12 [Compound 187, (1R,3S,5R)-2-(2-(3-Acetyl-5-(2-methylpyrimidin-5-yl)-1H-indazol-1-yl)acetyl)-N-(6-bromo-3-(difluoromethyl)-4-methylpyridin-2-yl)-5-methyl-2-azabicyclo[3.1.0]hexane-3-carboxamide]",< 1000 nM
3,"C=CCCS(=O)(=O)N(C)C[C@@]12C[C@@H](C(=O)Nc3nc(Br)ccc3C=C)N(C(=O)Cn3nc(C(C)=O)c4cc(-c5cnc(C)nc5)ccc43)[C@@H]1C2 [Compound 188, (1R,3S,5R)-2-(2-(3-Acetyl-5-(2-methylpyrimidin-5-yl)-1H-indazol-1-yl)acetyl)-N-(6-bromo-3-vinylpyridin-2-yl)-5-((N-methylbut-3-en-1-ylsulfonamido)methyl)-2-azabicyclo[3.1.0]hexane-3-carboxamide]",< 1000 nM
4,"CC(=O)c1nn(CC(=O)N2[C@H](C(=O)Nc3nc(OC(F)(F)F)ccc3C)C[C@@]3(C)C[C@@H]23)c2ccc(-c3cnc(C)nc3)cc12 [Compound 196, (1R,3S,5R)-2-(2-(3-Acetyl-5-(2-methylpyrimidin-5-yl)-1H-indazol-1-yl)acetyl)-5-methyl-N-(3-methyl-6-(trifluoromethoxy)pyridin-2-yl)-2-azabicyclo[3.1.0]hexane-3-carboxamide]",< 1000 nM
5,"CC(=O)c1nn(CC(=O)N2[C@H](C(=O)Nc3nc(Br)ccc3C)C[C@@]3(c4cnco4)C[C@@H]23)c2ccc(-c3cnc(C)nc3)cc12 [Compound 197, (1R,3S,5S)-2-(2-(3-Acetyl-5-(2-methylpyrimidin-5-yl)-1H-indazol-1-yl)acetyl)-N-(6-bromo-3-methylpyridin-2-yl)-5-(oxazol-5-yl)-2-azabicyclo[3.1.0]hexane-3-carboxamide]",< 1000 nM
6,"COc1ncc(-c2cc3c(C(C)=O)nn(CC(=O)N4[C@H](C(=O)Nc5nc(Br)c(F)cc5C)C[C@@]5(C)C[C@@H]45)c3cn2)cn1 [Compound 198, (1R,3S,5R)-2-(2-(3-Acetyl-5-(2-methoxypyrimidin-5-yl)-1H-pyrazolo[3,4-c]pyridin-1-yl)acetyl)-N-(6-bromo-5-fluoro-3-methylpyridin-2-yl)-5-methyl-2-azabicyclo[3.1.0]hexane-3-carboxamide]",< 1000 nM
7,"CC(=O)c1nn(CC(=O)N2[C@H](C(=O)Nc3nc(Br)ccc3C)C[C@@]3(Cn4cc(C5CC5)nn4)C[C@@H]23)c2ccc(-c3cnc(C)nc3)cc12 [Compound 201, (1R,3S,5R)-2-(2-(3-acetyl-5-(2-methylpyrimidin-5-yl)-1H-indazol-1-yl)acetyl)-N-(6-bromo-3-methylpyridin-2-yl)-5-((4-cyclopropyl-1H-1,2,3-triazol-1-yl)methyl)-2-azabicyclo[3.1.0]hexane-3-carboxamide]",< 1000 nM
8,"CC(=O)c1nn(CC(=O)N2[C@H](C(=O)Nc3nc(Br)ccc3C)C[C@@]3(Cn4cc([Si](C)(C)C)nn4)C[C@@H]23)c2ccc(-c3cnc(C)nc3)cc12 [Compound 202, (1R,3S,5R)-2-(2-(3-acetyl-5-(2-methylpyrimidin-5-yl)-1H-indazol-1-yl)acetyl)-N-(6-bromo-3-methylpyridin-2-yl)-5-((4-(trimethylsilyl)-1H-1,2,3-triazol-1-yl)methyl)-2-azabicyclo[3.1.0]hexane-3-carboxamide]",< 1000 nM
9,"CC(=O)c1nn(CC(=O)N2[C@H](C(=O)Nc3nc(Br)ccc3C)C[C@@]3(Cn4ccnn4)C[C@@H]23)c2ccc(-c3cnc(C)nc3)cc12 [Compound 203, (1R,3S,5R)-5-((1H-1,2,3-triazol-1-yl)methyl)-2-(2-(3-acetyl-5-(2-methylpyrimidin-5-yl)-1H-indazol-1-yl)acetyl)-N-(6-bromo-3-methylpyridin-2-yl)-2-azabicyclo[3.1.0]hexane-3-carboxamide]",< 1000 nM
10,CC(=O)c1nn(CC(=O)N2[C@H](C(=O)Nc3nc(Br)ccc3CN3CC4(COC4)C3)C[C@@]3(C)C[C@@H]23)c2ccc(-c3cnc(C)nc3)cc12 [Compound 204],< 1000 nM
